Measured values published in PubChem BioAssay (NCI).
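Growth conditions: 96-well plates. Treatment: test compound, 48 hours, 5 concentrations. Analysis: linear interpolation between bracketing concentrations; unreached endpoints set to highest concentration. TGI denotes the concentration required for complete inhibition of growth.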

Columns and labels:
Assay in all cases: inhibition of tumour cell growth, NCI panel, 48 h
[1] = test system: UACC-62 melanoma
[2] = test system: SW-620 colon
[3] = test system: SNB-75 CNS
[4] = test system: CAKI-1 renal
[5] = test system: LXFL 529 NSCLC
[6] = test system: KM12 colon
[7] = test system: HT29 colon
[8] = test system: XF 498 CNS
[9] = test system: NCI-H460 lung
[10] = test system: SNB-19 CNS
[11] = test system: OVCAR-8 ovarian
[12] = test system: U251 CNS
[13] = test system: NCI-H226 lung
[14] = test system: CCRF-CEM leukemia
[15] = test system: HOP-18 NSCLC
[16] = test system: EKVX NSCLC
[17] = test system: MALME-3M melanoma
[18] = test system: SK-MEL-2 melanoma
[19] = test system: RXF 393 renal
[20] = test system: KM20L2 colon
[21] = test system: HCT-15 colon
[22] = test system: TK-10 renal
[23] = test system: NCI-H522 lung
[24] = test system: 786-0 renal
[25] = test system: HCC-2998 colon
[26] = test system: COLO 205 colon
[27] = test system: HOP-92 NSCLC
[28] = test system: ACHN renal
[29] = test system: SR leukemia
[30] = test system: A549 NSCLC
[31] = test system: OVCAR-5 ovarian
[32] = test system: DMS 114 small cell lung
[33] = test system: M14 melanoma
[34] = test system: HOP-62 NSCLC
[35] = test system: HCT-116 colon
[36] = test system: NCI-H23 lung
[37] = test system: SF-268 CNS
[38] = test system: K-562 leukemia
[39] = test system: UACC-257 melanoma
[40] = test system: SK-OV-3 ovarian
[41] = test system: MOLT-4 leukemia
[42] = test system: M19-MEL melanoma
[43] = test system: SK-MEL-28 melanoma
[44] = test system: UO-31 renal
[45] = test system: OVCAR-4 ovarian
[46] = test system: DMS 273 small cell lung
[47] = test system: LOX IMVI melanoma
[48] = test system: SK-MEL-5 melanoma
[49] = test system: SN12C renal
[50] = test system: HL-60(TB) leukemia
[51] = test system: IGROV1 ovarian
[52] = test system: RPMI-8226 leukemia
[53] = test system: SF-295 CNS
[54] = test system: A498 renal
[55] = test system: SNB-78 CNS
[56] = test system: DLD-1 colon
[57] = test system: OVCAR-3 ovarian
[58] = test system: RXF-631 renal
[59] = test system: SF-539 CNS

c1ccc2c3c([nH]c2c1)C1(CCCCC1)c1c([nH]c2ccccc12)C31CCCCC1
TGI [1]: 64.5 µM
TGI [2]: > 100 µM
TGI [3]: 36.5 µM
TGI [4]: > 100 µM
TGI [5]: > 100 µM
TGI [6]: > 100 µM
TGI [7]: > 100 µM
TGI [8]: > 100 µM
TGI [9]: > 100 µM
TGI [10]: > 100 µM
TGI [11]: 50.4 µM
TGI [12]: 97.6 µM
TGI [13]: 97.1 µM
TGI [14]: > 100 µM
TGI [15]: 68.2 µM
TGI [16]: 61.7 µM
TGI [17]: 80.1 µM
TGI [18]: 48.1 µM
TGI [19]: 89.4 µM
TGI [20]: > 100 µM
TGI [21]: > 100 µM
TGI [22]: 88.7 µM
TGI [23]: > 100 µM
TGI [24]: 32.2 µM
TGI [25]: 85.6 µM
TGI [26]: > 100 µM
TGI [27]: 46.6 µM
TGI [28]: 59 µM
TGI [29]: 58.9 µM
TGI [30]: > 100 µM
TGI [31]: > 100 µM
TGI [32]: > 100 µM
TGI [33]: > 100 µM
TGI [34]: 54.8 µM
TGI [35]: 37.1 µM
TGI [36]: > 100 µM
TGI [37]: 95.4 µM
TGI [38]: > 100 µM
TGI [39]: > 100 µM
TGI [40]: 49.6 µM
TGI [41]: > 100 µM
TGI [42]: > 100 µM
TGI [43]: > 100 µM
TGI [44]: > 100 µM
TGI [45]: 26 µM
TGI [46]: 59 µM
TGI [47]: > 100 µM
TGI [48]: 85.2 µM
TGI [49]: > 100 µM
TGI [50]: > 100 µM
TGI [51]: > 100 µM
TGI [52]: > 100 µM
TGI [53]: 56.8 µM
TGI [54]: 54 µM
TGI [55]: 45.4 µM
TGI [56]: > 100 µM
TGI [57]: > 100 µM

CCCCCCCSCC1C(=O)C23C(O)C1CCC2C12COC3(O)C(O)C1C(C)(C)CCC2O (stereo unspecified)
TGI [1]: 24 µM
TGI [2]: 3.23 µM
TGI [3]: 49.2 µM
TGI [4]: 15.7 µM
TGI [5]: 6.88 µM
TGI [6]: 23.9 µM
TGI [7]: 30 µM
TGI [8]: 33.4 µM
TGI [9]: 29.8 µM
TGI [10]: 33.9 µM
TGI [11]: 31.1 µM
TGI [12]: 22.7 µM
TGI [13]: 33 µM
TGI [14]: 14 µM
TGI [15]: 25 µM
TGI [16]: 32.9 µM
TGI [17]: 27.4 µM
TGI [18]: 29.8 µM
TGI [19]: 27.1 µM
TGI [20]: 25 µM
TGI [21]: 22.4 µM
TGI [22]: 29.5 µM
TGI [23]: 3.04 µM
TGI [24]: 26.7 µM
TGI [25]: 31.4 µM
TGI [26]: 15.1 µM
TGI [27]: 31.8 µM
TGI [28]: 24.9 µM
TGI [29]: 23.6 µM
TGI [30]: 39.3 µM
TGI [31]: 31.4 µM
TGI [32]: 23.1 µM
TGI [33]: 24.7 µM
TGI [34]: 37.9 µM
TGI [35]: 18.7 µM
TGI [36]: 34 µM
TGI [37]: 33.9 µM
TGI [38]: 15.8 µM
TGI [39]: 19.4 µM
TGI [58]: 22 µM
TGI [40]: 32 µM
TGI [41]: 28.2 µM
TGI [59]: 29.3 µM
TGI [42]: 31.6 µM
TGI [43]: 22.7 µM
TGI [44]: 23.5 µM
TGI [45]: 25.3 µM
TGI [46]: 27.3 µM
TGI [47]: 29.2 µM
TGI [48]: 25.1 µM
TGI [49]: 23.6 µM
TGI [50]: 16.3 µM
TGI [51]: 36.2 µM
TGI [52]: 27.3 µM
TGI [53]: 33.4 µM
TGI [54]: 26.9 µM
TGI [55]: 47.4 µM
TGI [56]: 30 µM
TGI [57]: 30.3 µM

[C-]#[N+]C(C)(C)C[C@H]1CC(C)C2CCC(C)C3([N+]#[C-])CCC(=C)C1[C@H]23 (stereo partly specified)
TGI [1]: 11.5 µM
TGI [2]: 12.7 µM
TGI [3]: 49.7 µM
TGI [4]: 20.1 µM
TGI [5]: 23.4 µM
TGI [6]: 11.8 µM
TGI [7]: 11.7 µM
TGI [8]: 10.1 µM
TGI [10]: 17.5 µM
TGI [11]: 9.22 µM
TGI [12]: 11.8 µM
TGI [13]: 10.7 µM
TGI [14]: > 50 µM
TGI [15]: 14.4 µM
TGI [16]: 35.8 µM
TGI [17]: 25.3 µM
TGI [18]: 2.67 µM
TGI [19]: 10.5 µM
TGI [20]: 11.6 µM
TGI [22]: 21.4 µM
TGI [23]: 12.2 µM
TGI [24]: 15.3 µM
TGI [25]: 14.7 µM
TGI [26]: 0.65 µM
TGI [27]: 0.256 µM
TGI [28]: 6.58 µM
TGI [29]: 8.74 µM
TGI [30]: 21.7 µM
TGI [31]: 8.49 µM
TGI [33]: 9.93 µM
TGI [34]: 19.3 µM
TGI [35]: 6.6 µM
TGI [36]: 19.6 µM
TGI [37]: 10.5 µM
TGI [38]: > 50 µM
TGI [39]: 10.9 µM
TGI [58]: 6.58 µM
TGI [40]: 45.3 µM
TGI [41]: 5.25 µM
TGI [59]: 13.7 µM
TGI [42]: 9.43 µM
TGI [43]: > 50 µM
TGI [44]: 8.66 µM
TGI [45]: 13.1 µM
TGI [46]: 2.55 µM
TGI [47]: 0.421 µM
TGI [48]: 5 µM
TGI [49]: 8.85 µM
TGI [50]: 12.6 µM
TGI [51]: 47.4 µM
TGI [53]: 24.1 µM
TGI [54]: 23.9 µM
TGI [55]: 12 µM
TGI [56]: 9.29 µM
TGI [57]: 14.1 µM

O=C(N/C(=C\c1ccc(Oc2ccc(Cl)c(Cl)c2)cc1)c1nc2ccccc2[nH]1)c1ccccc1
TGI [1]: 33.5 µM
TGI [2]: 33.7 µM
TGI [4]: 47.9 µM
TGI [5]: 32.3 µM
TGI [6]: 30.4 µM
TGI [7]: 32.6 µM
TGI [8]: 34.6 µM
TGI [10]: 36.3 µM
TGI [11]: 28.6 µM
TGI [12]: 27.4 µM
TGI [14]: 88.5 µM
TGI [16]: 50.5 µM
TGI [17]: 43.8 µM
TGI [18]: 37.7 µM
TGI [19]: 28.1 µM
TGI [20]: 37.2 µM
TGI [21]: 66.6 µM
TGI [22]: 57.7 µM
TGI [23]: 35.5 µM
TGI [24]: 33 µM
TGI [25]: 31.7 µM
TGI [26]: 58 µM
TGI [27]: 23.5 µM
TGI [28]: 50.9 µM
TGI [29]: 85 µM
TGI [30]: 54.4 µM
TGI [31]: 67.9 µM
TGI [33]: 34.8 µM
TGI [36]: 27.7 µM
TGI [37]: 37.1 µM
TGI [38]: 59.6 µM
TGI [40]: 79.2 µM
TGI [41]: 93.4 µM
TGI [59]: 32.7 µM
TGI [42]: 94 µM
TGI [43]: 35.1 µM
TGI [44]: 27.6 µM
TGI [45]: 54.2 µM
TGI [46]: 53.9 µM
TGI [48]: 30.4 µM
TGI [49]: 35.5 µM
TGI [53]: 29 µM
TGI [55]: 54.8 µM
TGI [56]: 42.9 µM
TGI [57]: 41 µM
